Measured values taken from article PMC10264579 (Frontiers in Pharmacology, 2023).

Test: In vitro skin permeation study in Franz diffusion cells
Format: in vitro ADME, human
Conditions: all formulations
Source text: The steady-state flux was estimated from the slope of the linear portion of the plot of cumulative mass in the acceptor phase over time.

lag time, KET: below 0
Structure (SMILES): CC(C(=O)O)c1cccc(C(=O)c2ccccc2)c1 (stereo not shown) [KET, ketoprofen]
